Laboratory results reported in article PMC11881561 (Antimicrobial Agents and Chemotherapy, 2025).
In brackets after ≈: the same amount, converted by molar mass. Read-outs that look alike come from different tables or passages of the source.

Key:
[1] = test system: engineered E. coli strain expressing KPC-3^D179Y/T243M; assay: microbe, parasite or virus in culture; type: cell-based; details: Escherichia coli, BLIs at fixed 4 μg/mL
[2] = test system: engineered E. coli strain expressing KPC-2^V240G; assay: microbe, parasite or virus in culture; type: cell-based; details: Escherichia coli, BLIs at fixed 4 μg/mL
[3] = test system: engineered E. coli strain expressing KPC-3^V240G; assay: microbe, parasite or virus in culture; type: cell-based; details: Escherichia coli, BLIs at fixed 4 μg/mL
[4] = test system: engineered E. coli strain expressing KPC-2^D179Y; assay: microbe, parasite or virus in culture; type: cell-based; details: Escherichia coli, BLIs at fixed 4 μg/mL
[5] = test system: engineered E. coli strain expressing KPC-3^D179Y; assay: microbe, parasite or virus in culture; type: cell-based; details: Escherichia coli, BLIs at fixed 4 μg/mL
[6] = test system: E. coli control strain lacking a β-lactamase; assay: microbe, parasite or virus in culture; type: cell-based; details: Escherichia coli, no KPC expressed, BLIs at fixed 4 μg/mL
[7] = test system: engineered E. coli strain expressing KPC-2 wt; assay: microbe, parasite or virus in culture; type: cell-based; details: Escherichia coli; KPC-2 wt strain; BLIs at fixed 4 μg/mL
KPC-2 WT [8] = molecular target: T1, KPC-2 WT (Klebsiella pneumoniae, UniProt Q9F663); assay: biochemical; details: inhibition of CENTA hydrolysis, read-out: Apparent affinity Ki^app
KPC-3 WT [9] = molecular target: T2, KPC-3 WT (Klebsiella pneumoniae, UniProt Q9F663, H272Y); assay: biochemical; details: inhibition of CENTA hydrolysis, read-out: Apparent affinity Ki^app
[10] = test system: engineered E. coli strain expressing KPC-2^D179Y/T243M; assay: microbe, parasite or virus in culture; type: cell-based; details: Escherichia coli, BLIs at fixed 4 μg/mL
[11] = test system: engineered E. coli strain expressing KPC-3 wt; assay: microbe, parasite or virus in culture; type: cell-based; details: Escherichia coli; KPC-3 wt strain; BLIs at fixed 4 μg/mL
KPC-3^V240G = KPC-3^V240G (Klebsiella pneumoniae, UniProt Q9F663, H272Y/V239G); assay: Inhibition kinetics (CENTA hydrolysis, jump dilution), KPC-3 V240G; type: biochemical; details: for Kd: estimated from ratio koff / k2/K; for koff: jump dilution
Protocol: (§1) Measurements to determine kinetic parameters for hydrolysis, and kinetic parameters for inhibition were performed at ambient temperature in PBS (pH 7.4) containing 0.1 mg/mL bovine serum albumin, using a PowerWaveXS plate reader (BioTek).
(§2) Second-order rate constants (k2/K) denoting the inactivation efficiency of BLIs were determined by continuously measuring CENTA (100 µM) hydrolysis ([28]) in the presence of various concentrations of BLI. Progress curves were fit to equation 3 using GraphPad Prism, where Ai and A0 are the measured and basal absorbance, vi and vs are initial and final velocity, and t is time in seconds. k2/K was derived with equation 4. Koff was determined by the jump dilution method ([24]). Kd was estimated from the ratio between koff and k2/K.
(§3) (3) Ai=A0+vst(vi-vs)[1-e^-(kobs)t/kobs]
(§4) (4) kobs=k-2+(k2/KI)[I]/1+[S]/KM

KPC-2 WT [12] = molecular target: T1, KPC-2 WT; details: previously reported; cited from earlier work
KPC-3^D179Y/T243M = KPC-3^D179Y/T243M (Klebsiella pneumoniae, UniProt Q9F663, D178Y/H272Y/T242M); assay: Inhibition kinetics (CENTA hydrolysis, jump dilution), KPC-3 D179Y/T243M; type: biochemical; details: for Kd: estimated from ratio koff / k2/K; for koff: jump dilution
Protocol: as §1, §2, §3, §4

[13] = test system: KPC-3^D179Y and KPC-3^D179Y/T243M; assay: Inhibition kinetics, summary for KPC-3 D179Y variants; type: biochemical, Klebsiella pneumoniae; details: range over TAN, LED, AVI and both KPC-3 D179Y variants
Protocol: as §1, §2, §3, §4

KPC-2^V240G = KPC-2^V240G (Klebsiella pneumoniae, UniProt Q9F663, V239G); assay: Inhibition kinetics (CENTA hydrolysis, jump dilution), KPC-2 V240G; type: biochemical; details: for Kd: estimated from ratio koff / k2/K; for koff: jump dilution
Protocol: as §1, §2, §3, §4

KPC-3^D179Y = KPC-3^D179Y (Klebsiella pneumoniae, UniProt Q9F663, D178Y/H272Y); assay: Inhibition kinetics (CENTA hydrolysis, jump dilution), KPC-3 D179Y; type: biochemical; details: for Kd: estimated from ratio koff / k2/K; for koff: jump dilution
Protocol: as §1, §2, §3, §4

KPC-2^D179Y = KPC-2^D179Y (Klebsiella pneumoniae, UniProt Q9F663, D178Y); assay: Inhibition kinetics (CENTA hydrolysis, jump dilution), KPC-2 D179Y; type: biochemical; details: for Kd: estimated from ratio koff / k2/K; for koff: jump dilution
Protocol: as §1, §2, §3, §4

KPC-3 WT [14] = molecular target: T2, KPC-3 WT; assay: Inhibition kinetics (CENTA hydrolysis, jump dilution), KPC-3 wt; type: biochemical; details: for Kd: estimated from ratio koff / k2/K; for koff: jump dilution
Protocol: as §1, §2, §3, §4

KPC-2^D179Y/T243M = KPC-2^D179Y/T243M (Klebsiella pneumoniae, UniProt Q9F663, D178Y/T242M); assay: Inhibition kinetics (CENTA hydrolysis, jump dilution), KPC-2 D179Y/T243M; type: biochemical; details: for Kd: estimated from ratio koff / k2/K; for koff: jump dilution
Protocol: as §1, §2, §3, §4

[15] = test system: E. coli strains expressing KPC-2^D179Y or KPC-2^D179Y/T243M; assay: microbe, parasite or virus in culture; type: cell-based
KPC-2 WT [16] = molecular target: T1, KPC-2 WT; type: biochemical
Protocol: as §1, §2, §3, §4

[17] = pH 7.4, inactivation efficiency, read-out: k2/K

## Nc1nc(/C(=C/CC(=O)O)C(=O)N[C@@H]2C(=O)N3C(C(=O)O)=CCS[C@H]23)cs1 [CTB, ceftibuten]
[1]
  MIC: 16 µg/mL (≈ 39 µM)
[2]
  MIC: 64 µg/mL (≈ 156 µM)
[3]
  MIC: 32 µg/mL (≈ 78 µM)
[4]
  MIC: 16 µg/mL (≈ 39 µM)
[5]
  MIC: 32 µg/mL (≈ 78 µM)
[6]
  MIC: 1 µg/mL (≈ 2.44 µM)
[7]
  MIC: 16 µg/mL (≈ 39 µM)
KPC-2 WT [8]
  Ki: 159000 ± 10000 nM
KPC-3 WT [9]
  Ki: 368000 ± 26000 nM
[10]
  MIC: 16 µg/mL (≈ 39 µM)
[11]
  MIC: 32 µg/mL (≈ 78 µM)

## CCC(=O)N[C@H]1Cc2cccc(C(=O)O)c2OB1O [LED, ledaborbactam]
KPC-3^V240G
  t1/2: 19.3 ± 0.4 min
  Kd: 46 nM
KPC-3^V240G; read-out: koff
  koff: 0.0006 s⁻¹
KPC-3^V240G; [17]
  kinact/KI: 13000 M⁻¹ s⁻¹
KPC-2 WT [12]
  Kd: 9 nM
  k2/K: (2.9 ± 0.07) × 10^4 M^−1⋅s^−1
  koff: (2.5 ± 0.1) × 10^−4 s^−1
KPC-3^D179Y/T243M
  t1/2: 18.1 ± 2.2 min
  Kd: 620 nM
KPC-3^D179Y/T243M; read-out: koff
  koff: 0.00065 s⁻¹
KPC-3^D179Y/T243M; [17]
  kinact/KI: 1000 M⁻¹ s⁻¹
[13]
  reduced inactivation efficiencies relative to KPC-3^wt: 2–14 fold
KPC-2^V240G
  t1/2: 32 ± 1 min
  Kd: 12 nM
KPC-2^V240G; read-out: koff
  koff: 0.00037 s⁻¹
KPC-2^V240G; [17]
  kinact/KI: 31000 M⁻¹ s⁻¹
KPC-3^D179Y
  t1/2: 17.2 ± 0.3 min
  Kd: 1250 nM
KPC-3^D179Y; read-out: koff
  koff: 0.00067 s⁻¹
KPC-3^D179Y; [17]
  kinact/KI: 540 M⁻¹ s⁻¹
KPC-2^D179Y; KPC-2 D179Y
  t1/2: 16.7 ± 0.5 min
  Kd: 1300 nM
KPC-2^D179Y; KPC-2 D179Y, read-out: koff
  koff: 0.00069 s⁻¹
KPC-2^D179Y; pH 7.4, inactivation efficiency, KPC-2 D179Y, read-out: k2/K
  kinact/KI: 520 M⁻¹ s⁻¹
KPC-3 WT [14]
  t1/2: 19.6 ± 0.2 min
  Kd: 220 nM
KPC-3 WT [14]; read-out: koff
  koff: 0.00059 s⁻¹
KPC-3 WT [14]; [17]
  kinact/KI: 2700 M⁻¹ s⁻¹
KPC-2^D179Y/T243M; KPC-2 D179Y/T243M
  t1/2: 18.6 ± 2.7 min
  Kd: 1500 nM
KPC-2^D179Y/T243M; KPC-2 D179Y/T243M, read-out: koff
  koff: 0.00063 s⁻¹
KPC-2^D179Y/T243M; pH 7.4, inactivation efficiency, KPC-2 D179Y/T243M, read-out: k2/K
  kinact/KI: 430 M⁻¹ s⁻¹

## C[C@@H](O)[C@H]1C(=O)N2C(C(=O)O)=C(S[C@@H]3CN[C@H](C(=O)N(C)C)C3)[C@H](C)[C@H]12 [MEM, meropenem]
[1]
  MIC: 0.12 µg/mL (≈ 0.313 µM)
[2]
  MIC: 8 µg/mL (≈ 20.9 µM)
[3]
  MIC: 16 µg/mL (≈ 41.7 µM)
[4]
  MIC: 0.25 µg/mL (≈ 0.652 µM)
[5]
  MIC: 0.12 µg/mL (≈ 0.313 µM)
[6]
  MIC: 0.03 µg/mL (≈ 0.0782 µM)
[7]
  MIC: 32 µg/mL (≈ 83.4 µM)
[15]
  MIC increase relative to the control strain: eightfold
[10]
  MIC: 0.25 µg/mL (≈ 0.652 µM)
[11]
  MIC: 16 µg/mL (≈ 41.7 µM)

## NCCN[C@H]1CC[C@H](CC(=O)N[C@H]2Cc3cccc(C(=O)O)c3OB2O)CC1 [TAN, taniborbactam]
KPC-3^V240G
  t1/2: 14.4 ± 0.7 min
  Kd: 18 nM
  koff: (8.0 ± 0.4) × 10^−4 s^−1
KPC-3^V240G; inactivation efficiency
  k2/K: (4.4 ± 0.9) × 10^4 M^−1⋅s^−1
KPC-3^D179Y/T243M
  t1/2: 14.6 ± 5 min
  Kd: 193 nM
  koff: (8.5 ± 2.5) × 10^−4 s^−1
KPC-3^D179Y/T243M; inactivation efficiency
  k2/K: (4.4 ± 0.7) × 10^3 M^−1⋅s^−1
[13]
  reduced inactivation efficiencies relative to KPC-3^wt: 2–14 fold
KPC-2^V240G
  t1/2: 106 ± 2.3 min
  Kd: 55 nM
  koff: (1.1 ± 0.03) × 10^−4 s^−1
KPC-2^V240G; inactivation efficiency
  k2/K: (0.2 ± 0.02) × 10^4 M^−1⋅s^−1
KPC-3^D179Y
  t1/2: 14.3 ± 1.2 min
  Kd: 290 nM
  koff: (8.1 ± 0.7) × 10^−4 s^−1
KPC-3^D179Y; inactivation efficiency
  k2/K: (2.8 ± 0.2) × 10^3 M^−1⋅s^−1
KPC-2^D179Y; KPC-2 D179Y
  t1/2: 231 ± 19.4 min
  Kd: 2900 nM
  koff: (5.0 ± 0.4) × 10^−5 s^−1
KPC-2^D179Y; KPC-2^D179Y relative to KPC-2 wt
  reduction in k2/K: roughly 500 fold
KPC-2^D179Y; inactivation efficiency, KPC-2 D179Y
  k2/K: 17 ± 0.7 M^−1⋅s^−1
KPC-3 WT [14]
  t1/2: 34 ± 4 min
  Kd: 9 nM
  koff: (3.5 ± 0.4) × 10^−4 s^−1
KPC-3 WT [14]; inactivation efficiency
  k2/K: (3.9 ± 0.4) × 10^4 M^−1⋅s^−1
KPC-2 WT [16]
  t1/2: 104 ± 2.3 min
KPC-2 WT [16]; estimated from ratio koff / k2/K
  Kd: 11 nM
KPC-2 WT [16]; inactivation efficiency, CENTA 100 µM
  k2/K: (0.9 ± 0.02) × 10^4 M^−1⋅s^−1
KPC-2 WT [16]; jump dilution
  koff: (1.0 ± 0.04) × 10^−4 s^−1
KPC-2^D179Y/T243M; KPC-2 D179Y/T243M
  t1/2: 222.3 ± 13.7 min
  Kd: 3400 nM
  koff: (5.2 ± 0.3) × 10^−5 s^−1
KPC-2^D179Y/T243M; KPC-2^D179Y/T243M relative to KPC-2 wt
  reduction in k2/K: ~600 fold
KPC-2^D179Y/T243M; inactivation efficiency, KPC-2 D179Y/T243M
  k2/K: 15.2 ± 0.1 M^−1⋅s^−1
